Consider two substances from patent US8642008B2, “Molecular probe for imaging of pancreatic islets and use of the same” (priority 2009, dated 2014).

The test system of data set [1] is GLP-1R-positive tumor cells. The settings on record: cited from earlier work.
Another data set relates to pancreatic islets. The settings on record: cited from earlier work.
For another data set, the system named is pancreatic β-cells. The data set is described as follows: Two-dimensional imaging analysis of pancreas sections of MIP-GFP mice (fluorescence and autoradiography). The class given is in vivo, mouse.
The conditions of data set [2]: mouse, iv. The procedure:
At points of 5 minutes, 15 minutes, 30 minutes, 60 minutes, and 120 minutes after the administration, organs were dissected out of the mice, respectively (n=5). The weight and the radioactivity of each organ were determined, and an accumulation amount (% dose/g) of the molecular probe was calculated from the radioactivity per unit weight. […] FIG. 1A is a graph showing how the accumulation of the molecular probe in each organ varied with time, and FIG. 1B is a graph of an enlarged part of FIG. 1A.
1, biodistribution of the same in a mouse was determined. […] The determination of biodistribution was carried out in the same manner as that in Example 1.
At points of 5 minutes, 15 minutes, 30 minutes, 60 minutes, and 120 minutes after the administration, organs were dissected out of the mice, respectively (n=5). The weight and the radioactivity of each organ were determined, and an accumulation amount (% dose/g) of the molecular probe was calculated from the radioactivity per unit weight. […] FIG. 5A is a graph showing how the accumulation of the molecular probe in each organ varied with time, and FIG. 5B is a graph of an enlarged part of 5A.

Protocol for pancreatic β-cells: Two-dimensional imaging analysis was performed using transgenic mice that have a genetic background of C57BL/6 mice and express GFP (green fluorescent protein) under regulation of MIP (mouse insulin I gene promoter) (hereinafter these mice are referred to as “MIP-GFP mice”). […] Sections were cut out of the dissected pancreases, and each section was placed on a slide glass, covered with a cover glass. Fluorescence and radioactivity (autoradiography) of each section were determined using an image analyzer (trade name: Typhoon 9410, produced by GE Health Care Inc.) (exposure time: 14 hours).
Sections were cut out of the dissected pancreases, and fluorescence and radioactivity of each section were determined in the same manner as described above.
DPP (dipeptidyl peptidase) IV inhibitor (0.1 mL of 6 mg/mL solution) was administered by intravenous injection to unanesthetized MIP-GFP mice (male, weight: 20 g), and these mice were used as controls 1-2. […] Sections were cut out of the dissected pancreases, and fluorescence and radioactivity of each section were determined in the same manner as described above. […]
Sections were cut out of the dissected pancreases, and fluorescence and radioactivity of each section thus obtained were determined in the same manner as described above.

For the substance Lys^40(Ahx-DTPA-^111In)Exendin-(9-39), the “uptake in the GLP-1R-positive tumor cells” value in data set [1] is reported as “about 7.5%”. Also, the “uptake in pancreatic islets” value in the data set on pancreatic islets was “about 0.4%”.
On to “formula (35): exendin(9-39) sequence, α-amino group at N-terminus labeled with [125I] 3-iodobenzoyl group, C-terminus amidated”, for which the “localization of the radioactivity signal versus GFP signal in pancreas sections” value with pancreatic β-cells (30 and 60 minutes after administration) is on record as “consistent with that of the GFP signal”. Also, the “radioactivity signal of pancreas sections after preliminary administration of cold probe exendin(9-39)” value in the data set with pancreatic β-cells (30 minutes after probe) is “substantially no radioactivity signal was detected”. Besides, in data set [2] (in vivo), the “accumulation amount in the pancreas, times as much as that in the intestine” value is on record as “not less than 11 times” and the “accumulation amount in the pancreas, times as much as that in the stomach” value is on record as “not less than 3 times”. For the same substance, the “change with time of accumulation in the thyroid gland (deiodization metabolism in vivo)” value in data set [2] is reported as “no great change”.
